Reference: patent US9096565B2, “Inhibitors of histone deacetylase” (MethylGene Inc., priority 2007, dated 2015)

Target: one or more of HDAC-4, HDAC-5, HDAC-6, HDAC-7, HDAC-8, HDAC-9, HDAC-10 and HDAC-11
Test: Inhibition of histone deacetylase enzymatic activity (summary statement over isoforms)
Type: biochemical
Settings: Table 3, selected examples; HDAC isoform not given
Method in brief: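 HDAC enzyme mix with compound was preincubated 5 min at room temperature. Reaction was started at 37 °C with Boc-Lys(trifluoroacetyl)-AMC substrate and run 20-30 min. It was stopped with trypsin (1 mg/mL) plus a known HDAC inhibitor to release the fluorogenic AMC.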

IC50 [µM]	Compound
1 to 15	O=C(NO)C(Oc1ccc2c(c1)CCCC2)c1ccccc1 (centres unmarked) [Compound 7-36, N-hydroxy-2-phenyl-2-(5,6,7,8-tetrahydronaphthalen-2-yloxy)acetamide]
1 to 15	CC(C)(C)c1ccc(OC(C(=O)NO)c2ccccc2)cc1 (centres unmarked) [Compound 7-37, 2-(4-tert-butylphenoxy)-N-hydroxy-2-phenylacetamide]
1 to 15	CCCOc1ccc(OC(C(=O)NO)c2ccccc2)cc1 (centres unmarked) [Compound 7-41, N-hydroxy-2-phenyl-2-(4-propoxyphenoxy)acetamide]
1 to 15	COc1ccc(OC(C(=O)NO)c2ccccc2)cc1OC (centres unmarked) [Compound 7-42, 2-(3,4-dimethoxyphenoxy)-N-hydroxy-2-phenylacetamide]
1 to 15	O=C(NO)C(Oc1ccc(C(F)(F)F)cc1)c1ccccc1 (centres unmarked) [Compound 7-44, N-hydroxy-2-phenyl-2-(4-(trifluoromethyl)phenoxy)acetamide]
